Measurements taken from patent US20080175889A1, “METHOD AND COMPOSITION FOR COATING WOUNDS AND PROTECTING SKIN USING A POLYETHER POLYURETHANE SOLUTION” (priority 2007, published 2008).

Tests used:
animal's tissue = details: solvent alone or containing dissolved PEPU polymer; compared to THF
[1] = cited from earlier work
rat = details: cited from earlier work
[2] = TWA; cited from earlier work
[3] = published literature; cited from earlier work

SMILES | penetration into an animal's tissue after applying the solvent onto the skin (animal's tissue) | amount of solvent that can dissolve in water [1] | amount of water that can dissolve in the solvent ([1]; water in solvent) | LD-50 (rat; rat model, reported for both skin contact and inhalation) | OSHA Permissible Exposure Limit and NIOSH Recommended Exposure limit [2] | LD-50 (rats) (rat; rats) | carcinogenicity / teratogenicity [3] | genotoxicity [3] | skin irritation [3]
CC1CCCO1 (stereo not shown) [2-MeOX, 2-methyloxolane] | much less 2-MeOX compared to THF solvent can penetrate | approximately 14 % by weight | 4% | approximately 6 g/kg | – | – | – | – | –
C1CCOC1 [THF, tetrahydrofuran] | – | miscible, in all proportions | – | – | 200 ppm | 890 mg/kg | not considered a carcinogen or a teratogen | nor is it genotoxic | skin irritant
